SMILES strings stand for the structures.

Type in all cases: cell-based
In test [1] the test system is PRMT5 (SDMA) in HAP1 MTAP-intact cell line. As to the kind of experiment: SDMA in-cell western assay, HAP1 MTAP-intact cell line. The conditions noted are these: Homo sapiens, HAP1 MTAP-intact cell line (endogenous MTAP), read-out: Hap 1 MTAP intact IC50. From the text: (§1) HAP1 MTAP-intact is a cell line in which endogenous levels of MTAP are expressed, and HAP1 MTAP-deleted is an MTAP-null cell line.

Test [2] deals with PRMT5 (SDMA) in HAP1 MTAP-deleted cell line. As to the kind of experiment: SDMA in-cell western assay, HAP1 MTAP-deleted cell line. The conditions noted are these: for IC50 / IC90: Homo sapiens, SDMA in-cell western, HAP1 MTAP-deleted (MTAP-null) cell line; for Hap1 MTAP intact/deleted ratio: ratio of SDMA in-cell western IC50 in HAP1 MTAP-intact to IC50 in HAP1 MTAP-deleted cell line.
Description: as §1

Test [3] concerns HAP1 MTAP-deleted cell line. Nature of the test: viability assay for the MTAP-deleted cell line. The conditions noted are these: Homo sapiens.

For the compound `Cc1cc(NC(=O)C(=O)N2C[C@@H](C)N(C(=O)C3(C(F)(F)F)CC3)C[C@@H]2c2cccc(C(F)(F)F)c2)cnc1N` [Compound 137, N-(6-amino-5-methylpyridin-3-yl)-2-((2S,5R)-5-methyl-4-(1-(trifluoromethyl)cyclopropanecarbonyl)-2-(3-(trifluoromethyl)phenyl)piperazin-1-yl)-2-oxoacetamide], the IC50 (usually the concentration that inhibits the measured activity by half) in test [1] was above 50 nM; in test [2] it was 5 to 50 nM; in test [3], below 100 nM. Moreover, the IC90 (in general, the point of the concentration-response curve where the effect stands at 90%) in test [2] was above 125 nM. For the same compound, the “Hap1 MTAP intact/deleted ratio” value in test [2] was “B (an IC50 ratio greater than or equal to 15 fold but lower than 30 fold)”.

As for `CCc1cc(NC(=O)C(=O)N2C[C@@H](C)N(CC(C)(C)C)C[C@@H]2c2ccccc2)cnc1N` [Compound 121, N-(6-amino-5-ethylpyridin-3-yl)-2-((2S,5R)-5-methyl-4neopentyl-2-phenylpiperazin-1-yl)-2-oxoacetamide], the IC50 in test [1] was above 50 nM. Also, in test [2], the IC50 was in the range of 5 to 50 nM, the IC90 lay in the range of 75 to 125 nM and the “Hap1 MTAP intact/deleted ratio” value is reported as “B (an IC50 ratio greater than or equal to 15 fold but lower than 30 fold)”. The IC50 in test [3] was below 100 nM.

For the compound `CCc1cc(NC(=O)C(=O)N2C[C@@H](C)N(C(=O)C3(C(F)(F)F)CC3)C[C@@H]2c2ccc(F)c(Cl)c2)cnc1N` [Compound 139, N-(6-amino-5-ethylpyridin-3-yl)-2-((2S,5R)-2-(3-chloro-4-fluorophenyl)-5-methyl-4-(1-(trifluoromethyl)cyclopropanecarbonyl)piperazin-1-yl)-2-oxoacetamide], the IC50 in test [1] was 5 to 50 nM. For the same compound, in test [2], the IC50 is below 5 nM, the IC90 is below 75 nM and the “Hap1 MTAP intact/deleted ratio” value is recorded as “B (an IC50 ratio greater than or equal to 15 fold but lower than 30 fold)”. This compound gave an IC50 in test [3] below 100 nM.

As to `C[C@@H]1CN(C(=O)C(=O)Nc2cnc(N)c3c2cnn3C)[C@@H](c2ccccc2)CN1C(=O)C1(C)CC1` [Compound 169, N-(7-Amino-1-methyl-pyrazolo[3,4-c]pyridin-4-yl)-2-oxo-2-[(2S,5R)-5-methyl-4-(1-methylcyclopropanecarbonyl)-2-phenyl-piperazin-1-yl]acetamide], the half-inhibitory concentration (IC50) in test [1] is 5 to 50 nM; in test [2], below 5 nM; in test [3], below 100 nM. The IC90 in test [2] is below 75 nM. Besides, the “Hap1 MTAP intact/deleted ratio” value in test [2] is listed as “C (an IC50 ratio of less than 15 fold)”.

For the compound `Cc1cc(NC(=O)C(=O)N2C[C@@H](C)N(C(=O)C(C)(C)N(C)C)C[C@@H]2c2ccccc2)cnc1N` [Compound 28], in test [1], the IC50 is above 50 nM. In test [2], the IC50 was 5 to 50 nM, the IC90 was in the range of 75 to 125 nM and the “Hap1 MTAP intact/deleted ratio” value is on record as “B (an IC50 ratio greater than or equal to 15 fold but lower than 30 fold)”. For the same compound, the IC50 in test [3] is below 100 nM.

As for `C[C@@H]1CN(C(=O)C(=O)Nc2cnc(N)c3cn[nH]c23)[C@@H](c2ccccc2)CN1C1CC1` (racemic) [Compound 170, N-(4-Amino-1H-pyrazolo[4,3-c]pyridin-7-yl)-2-oxo-2-[rac-(2S,5R)-4-cyclopropyl-5-methyl-2-phenyl-piperazin-1-yl]acetamide], the IC50 is 5 to 50 nM in test [1], below 5 nM in test [2] and below 100 nM in test [3]. Moreover, the “Hap1 MTAP intact/deleted ratio” value in test [2] is recorded as “C (an IC50 ratio of less than 15 fold)”.

For the compound `Cc1cc(NC(=O)C(=O)N2C[C@@H](C)N(C(=O)C3(C(F)(F)F)CC3)C[C@@H]2c2ccsc2)cnc1N` [Compound 138, N-(6-amino-5-methyl-3-pyridyl)-2-[(2S,5R)-5-methyl-2-(3-thienyl)-4-[1-(trifluoromethyl)cyclopropanecarbonyl]piperazin-1-yl]-2-oxo-acetamide], the 50% inhibitory concentration (IC50) in test [1] is above 50 nM. Moreover, in test [2], the half-maximal inhibitory concentration (IC50) lay within 5 to 50 nM, the IC90 is above 125 nM and the “Hap1 MTAP intact/deleted ratio” value is reported as “A (an IC50 ratio greater than or equal to 30 fold)”. The compound also registered a concentration for half-maximal inhibition (IC50) in test [3] below 100 nM.

As for `C[C@@H]1CN(C(=O)C(=O)Nc2cncc3[nH]ncc23)[C@@H](c2ccccc2)CN1C(=O)C1(C)CC1` [Compound 147, 2-((2S,5R)-5-methyl-4-(1-methylcyclopropanecarbonyl)-2-phenylpiperazin-1-yl)-2-oxo-N-(1H-pyrazolo[3,4-c]pyridin-4-yl)acetamide], in test [1], the IC50 is above 50 nM. Also, in test [2], the IC50 is below 5 nM, the IC90 was above 125 nM and the “Hap1 MTAP intact/deleted ratio” value is “A (an IC50 ratio greater than or equal to 30 fold)”. Moreover, in test [3], the concentration for half-maximal inhibition (IC50) was 100 to 1000 nM.

For `Cc1cc(NC(=O)C(=O)N2C[C@@H](C)N(C(=O)OC(C)(C)C)C[C@@H]2c2ccc(F)cc2)cnc1N` [Compound 101], the IC50 in test [1] was above 50 nM. In test [2], the IC50 is below 5 nM, the 90% effect concentration (IC90) is below 75 nM and the “Hap1 MTAP intact/deleted ratio” value is “B (an IC50 ratio greater than or equal to 15 fold but lower than 30 fold)”. Besides, in test [3], the half-inhibitory concentration (IC50) was below 100 nM.

As to `Cc1cc(NC(=O)C(=O)N2C[C@@H](C)N(C(=O)C3(C)CC3)C[C@@H]2c2cccs2)cnc1N` (single isomer, unassigned) [Compound 53], the IC50 in test [1] was 5 to 50 nM; in test [2], below 5 nM; in test [3] it was below 100 nM. The same compound yielded an IC90 in test [2] below 75 nM. Also, the “Hap1 MTAP intact/deleted ratio” value in test [2] was “C (an IC50 ratio of less than 15 fold)”.

On to `CCc1cc(NC(=O)C(=O)N2C[C@@H](C)N(C(=O)C(C)(C)CN(C)C)C[C@@H]2c2ccccc2)cnc1N` [Compound 37], for which the IC50 in test [1] was above 50 nM. In addition, in test [2], the IC50 is below 5 nM, the IC90 was below 75 nM and the “Hap1 MTAP intact/deleted ratio” value is “A (an IC50 ratio greater than or equal to 30 fold)”. The compound also yielded an IC50 in test [3] below 100 nM.

Take `C[C@@H]1CN(C(=O)C(=O)Nc2cnc(N)c3cn[nH]c23)[C@@H](c2ccccc2)CN1C1CCC1` (racemic) [Compound 163, N-(4-Amino-2H-pyrazolo[4,3-c]pyridin-7-yl)-2-oxo-2-[rac-(2S,5R)-4-cyclobutyl-5-methyl-2-phenyl-piperazin-1-yl]acetamide]: the figures for the IC50 in test [1], in test [2] and in test [3] were 5 to 50 nM, below 5 nM and below 100 nM, respectively. In addition, the “Hap1 MTAP intact/deleted ratio” value in test [2] is “C (an IC50 ratio of less than 15 fold)”.

As to `C[C@@H]1CN(C(=O)C(=O)Nc2cnc(N)c3cn[nH]c23)[C@@H](c2ccccc2)CN1C1(C)CC1` (racemic) [Compound 167, N-(4-Amino-1H-pyrazolo[4,3-c]pyridin-7-yl)-2-oxo-2-[rac-(2S,5R)-5-methyl-4-(1-methylcyclopropyl)-2-phenyl-piperazin-1-yl]acetamide], the results for the IC50 in test [1], in test [2] and in test [3] were above 50 nM, below 5 nM and below 100 nM, respectively. In addition, the “Hap1 MTAP intact/deleted ratio” value in test [2] is given as “A (an IC50 ratio greater than or equal to 30 fold)”.

In the case of `Cc1cc(NC(=O)C(=O)N2C[C@@H](C)N(C(=O)C(C)(C)C)C[C@@H]2c2cccc(N3CCN(C)CC3)c2)cnc1N` [Compound 7, N-(6-amino-5-methylpyridin-3-yl)-2-((2S,5R)-5-methyl-2-(3-(4-methylpiperazin-1-yl)phenyl)-4-pivaloylpiperazin-1-yl)-2-oxoacetamide], the IC50 in test [1] is below 5 nM. Further, in test [2], the IC50 was below 5 nM, the IC90 is below 75 nM and the “Hap1 MTAP intact/deleted ratio” value is “C (an IC50 ratio of less than 15 fold)”. In test [3], this compound had an IC50 below 100 nM.

For the compound `C[C@@H]1CN(C(=O)C(=O)Nc2cnc(N)c(C3CC3)c2)[C@@H](c2ccccc2)CN1C(=O)C(C)(C)C` [Compound 97, N-(6-amino-5-cyclopropylpyridin-3-yl)-2-((2S,5R)-5-methyl-2-phenyl-4-pivaloylpiperazin-1-yl)-2-oxoacetamide], the values for the half-maximal inhibitory concentration (IC50) in test [1], in test [2] and in test [3] were 5 to 50 nM, below 5 nM and below 100 nM, respectively. The compound also showed an IC90 in test [2] below 75 nM. Further, the “Hap1 MTAP intact/deleted ratio” value in test [2] is on record as “C (an IC50 ratio of less than 15 fold)”.

Regarding `CCc1cc(NC(=O)C(=O)N2C[C@@H](C)N(C(=O)C(C)C)C[C@@H]2c2cccc(N3CCN(C)CC3)c2)cnc1N` [Compound 41, N-(6-amino-5-ethylpyridin-3-yl)-2-((2S,5R)-4-isobutyryl-5-methyl-2-(3-(4-methylpiperazin-1-yl)phenyl)piperazin-1-yl)-2-oxoacetamide], the IC50 in test [1] was 5 to 50 nM. In test [2], the IC50 is below 5 nM, the IC90 was below 75 nM and the “Hap1 MTAP intact/deleted ratio” value is “C (an IC50 ratio of less than 15 fold)”. In test [3], this compound registered an IC50 below 100 nM.

As to `CCc1cc(NC(=O)C(=O)N2C[C@@H](C)N(C(=O)OC(C)(C)C)C[C@@H]2c2ccc(F)cc2)cnc1N` [Compound 145, (2R,5S)-tert-butyl 4-(2-((6-amino-5-ethylpyridin-3-yl)amino)-2-oxoacetyl)-5-(4-fluorophenyl)-2-methylpiperazine-1-carboxylate], in test [1], the IC50 is above 50 nM. In test [2], the IC50 was in the range of 5 to 50 nM, the IC90 was below 75 nM and the “Hap1 MTAP intact/deleted ratio” value was “B (an IC50 ratio greater than or equal to 15 fold but lower than 30 fold)”. The compound further returned an IC50 in test [3] below 100 nM.

As to `CCc1cc(NC(=O)C(=O)N2CCN(C(=O)C3(C(F)(F)F)CC3)C[C@H]2c2ccc(F)c(Cl)c2)cnc1N` (single isomer, unassigned) [Compound 123], in test [1], the IC50 was above 50 nM. Moreover, in test [2], the half-maximal inhibitory concentration (IC50) was 5 to 50 nM, the IC90 is above 125 nM and the “Hap1 MTAP intact/deleted ratio” value was “A (an IC50 ratio greater than or equal to 30 fold)”. Further, the IC50 in test [3] is 100 to 1000 nM.

The record behind these values is patent US20250282749A1 (Tango Therapeutics, Inc., priority 2022, published 2025).
